Laboratory results taken from patent US10092510B2, “Veterinary method for inducing emesis” (Orion Corporation, priority 2013, dated 2018).
Where “and” joins values, the source holds several entries; their conditions need not be identical. Identical values can stand only once. Counter-ions that a name gives are not always drawn. Like-named read-outs stand apart in the source and are kept apart here.

Tested on: dogs
[1] = average of 6 dogs, pH 10, conc. 5 mg/ml, dose 30 μg/kg, both eyes
[2] = individual dogs 1-6, pH 10, conc. 5 mg/ml, dose 30 μg/kg, both eyes
[3] = average of 6 dogs, pH 4, conc. 10 mg/ml, dose 50 μg/kg, both eyes, fasted
[4] = average of 6 dogs, pH 4, conc. 40 mg/ml, dose 100 μg/kg, right eye, fed
[5] = individual dogs 1-6, pH 4, conc. 10 mg/ml, dose 50 μg/kg, both eyes, fasted, hydrochloride
[6] = individual dogs 1-6, pH 4, conc. 40 mg/ml, dose 100 μg/kg, right eye, fed, hydrochloride

Description: Aqueous eye drop solution comprising ropinirole hydrochloride (10 mg/ml or 40 mg/ml, pH 4) was administered into the eyes of six test dogs with doses of 50 μg/kg and 100 μg/kg for induction of emesis.

CCCN[C@H]1CCc2nc(N)sc2C1 [Pramipexole]
Number of vomits [1]: 3.3
Onset of the first vomit (average induction time for emesis) [1]: 4.5 min
The last vomit (vomiting ended on the average) [1]: 31.3 min
Prolonged emesis or irritation (eye drop solution 5 mg/ml, pH 10, dose 30 μg/kg, six dogs): No prolonged emesis or significant irritation
Number of vomits [2]: 6 (2×) and 1 (2×) and 3 (2×)
Onset of the first vomit [2]: 2 min and 3 min (3×) and 4 min and 12 min
The last vomit [2]: 62 min (2×) and 3 min and 27 min and 22 min and 12 min

CCCN(CCC)CCc1cccc2c1CC(=O)N2 [Ropinirole HCl, Ropinirole hydrochloride]
Number of vomits [3]: 3.5
Onset of the first vomit (average induction time for emesis) [3]: 6.7 min
The last vomit (vomiting ended on the average) [3]: 20.5 min
Number of vomits [4]: 2.3
Onset of the first vomit (average induction time for emesis) [4]: 4.8 min
The last vomit (vomiting ended on the average) [4]: 12.3 min
Time at which vomiting ends, from the administration (eye drop composition, general statement (typically)): ≤ 20 min
Onset of emesis and tolerability when administered to the eye of the animal (general statement of findings): consistent and rapid onset of emesis without producing unnecessarily prolonged emesis, ocular discomfort or significant local irritation
Number of vomits [5]: 3 (4×) and 2 and 7
Onset of the first vomit [5]: 7 min and 6 min (3×) and 4 min and 11 min
The last vomit [5]: 21 min and 20 min (2×) and 14 min and 12 min and 36 min
Number of vomits [6]: 2 (3×) and 1 and 4 and 3
Onset of the first vomit [6]: 6 min (2×) and 2 min and 7 min and 5 min and 3 min
The last vomit [6]: 9 min and 10 min and 7 min and 15 min and 20 min (2×)
Dogs vomiting / dogs treated (pH 4, conc. 10 mg/ml, dose 50 μg/kg, both eyes, fasted): Average 6/6
Dogs vomiting / dogs treated (pH 4, conc. 40 mg/ml, dose 100 μg/kg, right eye, fed): Average 6/6
